The test system of test [1] is muscle progenitors (hMP) from DMD hiPSC or WT hiPSC. The experiment in a line: Myotube assay: myogenic activity (total myotube area per well). Type of test: cell-based, human. Conditions: for Emax: Homo sapiens, 72 h, myotube assay, compounds incubated 3 days, read-out: MA (normalized Myotube Area, efficacy). In short, it runs like this:
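DMD or WT hiPSC-derived muscle progenitors plated on collagen I in K5 medium with 5 μM Y-27632, treated with compound (1.5 nM–30 μM) for 3 days at 37° C. Cells were fixed, stained for alpha-actinin and imaged for total myotube area per well. EC50 and normalized myotube area (MA) taken from duplicate-averaged data.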

Test [2] relates to satellite-like cells (Pax7-positive cells) in hMP. Put plainly: Myotube assay: Pax7-positive (satellite-like) cell quantification. Conditions: for Pax7% (pool of Pax7-positive cells): myotube assay, compounds incubated 3 days. Type of test: cell-based, human. The arrangement: key to Pax7% (pool of Pax7-positive cells) / Pax7: −: Depletes the pool of cells, while positively affects the myotubes; +: Maintains or increases the pool of cells, with at least 1 of the highest concentration known to be cytotoxic; ++: Maintains or increases the pool of cells, without any toxicity. In short, it runs like this:
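DMD hiPSC-derived muscle progenitors (hMP) proliferated 4 days, then plated on collagen I in K5 medium with 5 μM Y-27632. Compound added at 1.5 nM–30 μM for 3 days at 37° C, then cells fixed and immunostained. Pax7-positive cells counted as percentage of total nuclei, duplicates averaged.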

SMILES strings stand for the structures. pEC50: −log10 of the molar value. Where only a bound is given, the exact number is not on record here.

By pEC50 is commonly meant −log10 of the EC50, conventionally taken in molar units.

Take `O=C(Nc1ccc(Oc2ccnc3[nH]c(=O)cnc23)cc1F)Nc1c(-c2ccccc2)nn2c1CCC2` [(y), 1-(2-fluoro-4-((3-oxo-3,4-dihydropyrido[2,3-b]pyrazin-8-yl)oxy)phenyl)-3-(2-phenyl-5,6-dihydro-4H-pyrrolo[1,2-b]pyrazol-3-yl)urea]: the Emax in test [1] was in the range of 25 to 50%. The “Pax7% (pool of Pax7-positive cells)” value in test [2] is reported as “++”.

Consider `CSc1cc(Oc2ccnc3[nH]c(=O)cnc23)ccc1NC(=O)Nc1nnc(C(C)(C)C)s1` [(z), 1-(5-(tert-butyl)-1,3,4-thiadiazol-2-yl)-3-(2-(methylthio)-4-((3-oxo-3,4-dihydropyrido[2,3-b]pyrazin-8-yl)oxy)phenyl)urea], for which the Emax in test [1] is no less than 75%. The “Pax7% (pool of Pax7-positive cells)” value in test [2] is listed as “++”.

Turning to `CC(C)(C)c1cc(NC(=O)Nc2ccc(Oc3ccnc4[nH]c(=O)cnc34)cc2F)n(-c2ccccc2)n1` [CCT196969], in test [1] (comparative compounds, same assay, NA: non active), the MA entry was “++ (50%≤MA<75%)”. In test [1] (comparative compounds, same assay, NA: non active, read-out: EC50), the pEC50 was 6.00 to 6.30. Also, the Pax7 entry in test [2] (comparative compounds, same assay) is listed as “+”.

(Values after patent publication US20230089368A1, “POLYAROMATIC UREA DERIVATIVES AND THEIR USE IN THE TREATMENT OF MUSCLE DISEASES” (ANAGENESIS BIOTECHNOLOGIES S.A.S., priority 2019, published 2023).)
